Measurements: patent US10681909B2, “Herbicidal triazoles” (FMC Corporation, priority 2014, dated 2020)

Columns and labels:
lambsquarters = assay: Test C preemergence; type: in vivo, Chenopodium album; details: for Plant response rating (scale of 0 to 100 where 0 is no effect and 100 is complete control): Lambsquarters, preemergence; for Lambsquarters plant response rating (0 to 100): Preemergence, visual rating after 13 to 15 d
From the text: (§1) Seeds of plant species selected from blackgrass (Alopecurus myosuroides), ryegrass, Italian (Italian ryegrass, Lolium multiflorum), wheat (winter wheat, Triticum aestivum), galium (catchweed bedstraw, Galium aparine), corn (Zea mays), crabgrass, large (large crabgrass, Digitaria sanguinalis), foxtail, giant, (giant foxtail, Setaria faberii), johnsongrass (Sorghum halepense), lambsquarters (Chenopodium album), morningglory (Ipomoea coccinea), nutsedge, yellow (yellow nutsedge, Cyperus esculentus), pigweed (Amaranthus retroflexus), ragweed (common ragweed, Ambrosia elatior), soybean (Glycine max), barnyardgrass (Echinochloa crus-galli), oilseed rape (Brassica napus), waterhemp (common waterhemp, Amaranthus rudis), and velvetleaf (Abutilon theophrasti) were planted into a blend of loam soil and sand and treated preemergence with test chemicals formulated in a non-phytotoxic solvent mixture which included a surfactant. At the same time, plants selected from these crop and weed species and also chickweed (common chickweed, Stellaria media), oat, wild (wild oat, Avena fatua), and kochia (Kochia scoparia), were planted in pots containing Sunshine Redi-Earth® planting medium comprising spaghnum peat moss, vermiculite, starter nutrients and dolomitic limestone and treated with postemergence applications of test chemicals formulated in the same manner. Plants ranged in height from 2 to 18 cm (1- to 4-leaf stage) for postemergence treatments. […] A dash (-) response means no test result.

deadnettle = assay: Test D preemergence; type: in vivo, Lamium amplexicaule; details: for Plant response rating (0 to 100), Deadnettle: 16 g ai/ha, 0 is no effect, 100 is complete control; for Plant response rating: Deadnettle: scale 0 to 100
From the text: (§2) Seeds of plant species selected from bluegrass (annual bluegrass, Poa annua), blackgrass (Alopecurus myosuroides), canarygrass (Phalaris minor), chickweed (common chickweed, Stellaria media), galium (catchweed bedstraw, Galium aparine), bromegrass, down (downy bromegrass, Bromus tectorum), Russian thistle (Salsola kali), field poppy (Papaver rhoeas), field violet (Viola arvensis), foxtail, green (green foxtail, Setaria viridis), deadnettle (henbit deadnettle, Lamium amplexicaule), ryegrass, Ital. (Italian ryegrass, Lolium multiflorum), kochia (Kochia scoparia), lambsquarters (Chenopodium album), oilseed rape (Brassica napus), pigweed (Amaranthus retroflexus), chamomile (scentless chamomile, Matricaria inodora), speedwell (bird's-eye speedwell, Veronica persica), barley, spring (spring barley, Hordeum vulgare), wheat, spring (spring wheat, Triticum aestivum), buckwheat, wild (wild buckwheat, Polygonum convolvulus), wild mustard (Sinapis arvensis), oat, wild (wild oat, Avena fatua), radish, wild (wild radish, Raphanus raphanistrum), […]), barley, winter (winter barley, Hordeum vulgare), and wheat, winter (winter wheat, Triticum aestivum) were planted into a silt loam soil and treated preemergence with test chemicals formulated in a non-phytotoxic solvent mixture which included a surfactant. At the same time, these species were planted in pots containing Sunshine Redi-Earth® planting medium comprising spaghnum peat moss, vermiculite, starter nutrients and dolomitic limestone and treated with postemergence applications of the test chemicals formulated in the same manner. Plants ranged in height from 2 to 18 cm (1- to 4-leaf stage). Treated plants and controls were maintained in a controlled growth environment for 14 to 21 d after which time all species were compared to controls and visually evaluated. […] A dash (-) response means no test result.

wild mustard = assay: Test D preemergence; type: in vivo, Sinapis arvensis; details: for Plant response rating (0 to 100), Mustard, Wild: 16 g ai/ha, 0 is no effect, 100 is complete control; for Plant response rating: Mustard, Wild: scale 0 to 100
From the text: as §2

pigweed = assay: Test D preemergence; type: in vivo, Amaranthus retroflexus; details: for Plant response rating (0 to 100), Pigweed: 16 g ai/ha, 0 is no effect, 100 is complete control; for Plant response rating: Pigweed: scale 0 to 100
From the text: as §2

ryegrass, Italian = assay: Test C preemergence; type: in vivo, Lolium multiflorum; details: for Ryegrass, Italian plant response rating (0 to 100): Preemergence, visual rating after 13 to 15 d; for Plant response rating (scale of 0 to 100 where 0 is no effect and 100 is complete control): Ryegrass, Italian, preemergence
From the text: as §1

speedwell = assay: Test D postemergence; type: in vivo, Veronica persica; details: scale 0 to 100
From the text: as §2

foxtail, giant = assay: Test C preemergence; type: in vivo, Setaria faberii; details: for Plant response rating (scale of 0 to 100 where 0 is no effect and 100 is complete control): Foxtail, Giant, preemergence; for Foxtail, Giant plant response rating (0 to 100): Preemergence, visual rating after 13 to 15 d
From the text: as §1

kochia = assay: Test D postemergence; type: in vivo, Kochia scoparia; details: scale 0 to 100
From the text: as §2

crabgrass, large = assay: Test C preemergence; type: in vivo, Digitaria sanguinalis; details: for Plant response rating (scale of 0 to 100 where 0 is no effect and 100 is complete control): Crabgrass, Large, preemergence; for Crabgrass, Large plant response rating (0 to 100): Preemergence, visual rating after 13 to 15 d
From the text: as §1

wheat, spring = assay: Test D postemergence; type: in vivo, Triticum aestivum; details: scale 0 to 100
From the text: as §2

wheat, winter = assay: Test D postemergence; type: in vivo, Triticum aestivum; details: scale 0 to 100
From the text: as §2

buckwheat, wild = assay: Test D preemergence; type: in vivo, Polygonum convolvulus; details: for Plant response rating (0 to 100), Buckwheat, Wild: 16 g ai/ha, 0 is no effect, 100 is complete control; for Plant response rating: Buckwheat, Wild: scale 0 to 100
From the text: as §2

## FC(F)(F)COc1nc(-c2ccc(Cl)cc2)nn1Cc1ccnc(C(F)(F)F)c1 [Compound 31]
lambsquarters; 125 g ai/ha
  Plant response rating (scale of 0 to 100 where 0 is no effect and 100 is complete control): 100
lambsquarters; 250 g ai/ha
  Plant response rating (scale of 0 to 100 where 0 is no effect and 100 is complete control): 98
lambsquarters; 31 g ai/ha
  Lambsquarters plant response rating (0 to 100): 90
lambsquarters; 62 g ai/ha
  Lambsquarters plant response rating (0 to 100): 100
deadnettle
  Plant response rating (0 to 100), Deadnettle: 80
deadnettle; 31 g ai/ha
  Plant response rating: Deadnettle: 80
deadnettle; 62 g ai/ha
  Plant response rating: Deadnettle: 90
deadnettle; 125 g ai/ha
  Plant response rating: Deadnettle: 100
Wild mustard
  Plant response rating (0 to 100), Mustard, Wild: 100
Wild mustard; 62 g ai/ha
  Plant response rating: Mustard, Wild: 100
Wild mustard; 125 g ai/ha
  Plant response rating: Mustard, Wild: 100
pigweed
  Plant response rating (0 to 100), Pigweed: 100
pigweed; 62 g ai/ha
  Plant response rating: Pigweed: 100
pigweed; 125 g ai/ha
  Plant response rating: Pigweed: 100
ryegrass, Italian; 31 g ai/ha
  Ryegrass, Italian plant response rating (0 to 100): 50
ryegrass, Italian; 62 g ai/ha
  Ryegrass, Italian plant response rating (0 to 100): 60
ryegrass, Italian; 125 g ai/ha
  Plant response rating (scale of 0 to 100 where 0 is no effect and 100 is complete control): 90
ryegrass, Italian; 250 g ai/ha
  Plant response rating (scale of 0 to 100 where 0 is no effect and 100 is complete control): 90
speedwell; 16 g ai/ha
  Plant response rating: Speedwell: 95
speedwell; 31 g ai/ha
  Plant response rating: Speedwell: 90
speedwell; 62 g ai/ha
  Plant response rating: Speedwell: 100
speedwell; 125 g ai/ha
  Plant response rating: Speedwell: 100
foxtail, giant; 125 g ai/ha
  Plant response rating (scale of 0 to 100 where 0 is no effect and 100 is complete control): 98
foxtail, giant; 250 g ai/ha
  Plant response rating (scale of 0 to 100 where 0 is no effect and 100 is complete control): 100
foxtail, giant; 31 g ai/ha
  Foxtail, Giant plant response rating (0 to 100): 90
foxtail, giant; 62 g ai/ha
  Foxtail, Giant plant response rating (0 to 100): 95
kochia; 16 g ai/ha
  Plant response rating: Kochia: 80
kochia; 31 g ai/ha
  Plant response rating: Kochia: 85
kochia; 62 g ai/ha
  Plant response rating: Kochia: 90
kochia; 125 g ai/ha
  Plant response rating: Kochia: 95
crabgrass, large; 125 g ai/ha
  Plant response rating (scale of 0 to 100 where 0 is no effect and 100 is complete control): 100
crabgrass, large; 250 g ai/ha
  Plant response rating (scale of 0 to 100 where 0 is no effect and 100 is complete control): 100
crabgrass, large; 31 g ai/ha
  Crabgrass, Large plant response rating (0 to 100): 98
crabgrass, large; 62 g ai/ha
  Crabgrass, Large plant response rating (0 to 100): 98
wheat, spring; 16 g ai/ha
  Plant response rating: Wheat, Spring: 30
wheat, spring; 31 g ai/ha
  Plant response rating: Wheat, Spring: 35
wheat, spring; 62 g ai/ha
  Plant response rating: Wheat, Spring: 40
wheat, spring; 125 g ai/ha
  Plant response rating: Wheat, Spring: 45
wheat, winter; 16 g ai/ha
  Plant response rating: Wheat, Winter: 20
wheat, winter; 31 g ai/ha
  Plant response rating: Wheat, Winter: 20
wheat, winter; 62 g ai/ha
  Plant response rating: Wheat, Winter: 20
wheat, winter; 125 g ai/ha
  Plant response rating: Wheat, Winter: 30
buckwheat, wild
  Plant response rating (0 to 100), Buckwheat, Wild: 65
buckwheat, wild; 31 g ai/ha
  Plant response rating: Buckwheat, Wild: 75
buckwheat, wild; 62 g ai/ha
  Plant response rating: Buckwheat, Wild: 75
buckwheat, wild; 125 g ai/ha
  Plant response rating: Buckwheat, Wild: 75

## CCOc1nc(-c2ccc(C(F)(F)F)cc2)nn1Cc1ccnc(C(F)(F)F)c1 [Compound 35, 4-[[5-ethoxy-3-[4-(trifluoromethyl)phenyl]-1H-1,2,4-triazole-1-yl]methyl]-2-(trifluoromethyl)pyridine]
lambsquarters; 125 g ai/ha
  Plant response rating (scale of 0 to 100 where 0 is no effect and 100 is complete control): 100
lambsquarters; 250 g ai/ha
  Plant response rating (scale of 0 to 100 where 0 is no effect and 100 is complete control): 98
lambsquarters; 31 g ai/ha
  Lambsquarters plant response rating (0 to 100): 98
lambsquarters; 62 g ai/ha
  Lambsquarters plant response rating (0 to 100): 98
deadnettle
  Plant response rating (0 to 100), Deadnettle: 80
deadnettle; 31 g ai/ha
  Plant response rating: Deadnettle: 85
deadnettle; 62 g ai/ha
  Plant response rating: Deadnettle: 100
deadnettle; 125 g ai/ha
  Plant response rating: Deadnettle: 100
Wild mustard
  Plant response rating (0 to 100), Mustard, Wild: 70
Wild mustard; 62 g ai/ha
  Plant response rating: Mustard, Wild: 100
Wild mustard; 125 g ai/ha
  Plant response rating: Mustard, Wild: 100
pigweed
  Plant response rating (0 to 100), Pigweed: 100
pigweed; 62 g ai/ha
  Plant response rating: Pigweed: 100
pigweed; 125 g ai/ha
  Plant response rating: Pigweed: 100
ryegrass, Italian; 31 g ai/ha
  Ryegrass, Italian plant response rating (0 to 100): 70
ryegrass, Italian; 62 g ai/ha
  Ryegrass, Italian plant response rating (0 to 100): 85
ryegrass, Italian; 125 g ai/ha
  Plant response rating (scale of 0 to 100 where 0 is no effect and 100 is complete control): 90
ryegrass, Italian; 250 g ai/ha
  Plant response rating (scale of 0 to 100 where 0 is no effect and 100 is complete control): 90
speedwell; 16 g ai/ha
  Plant response rating: Speedwell: 75
speedwell; 31 g ai/ha
  Plant response rating: Speedwell: 85
speedwell; 62 g ai/ha
  Plant response rating: Speedwell: 90
speedwell; 125 g ai/ha
  Plant response rating: Speedwell: 100
foxtail, giant; 125 g ai/ha
  Plant response rating (scale of 0 to 100 where 0 is no effect and 100 is complete control): 100
foxtail, giant; 250 g ai/ha
  Plant response rating (scale of 0 to 100 where 0 is no effect and 100 is complete control): 100
foxtail, giant; 31 g ai/ha
  Foxtail, Giant plant response rating (0 to 100): 98
foxtail, giant; 62 g ai/ha
  Foxtail, Giant plant response rating (0 to 100): 100
kochia; 16 g ai/ha
  Plant response rating: Kochia: 90
kochia; 31 g ai/ha
  Plant response rating: Kochia: 90
kochia; 62 g ai/ha
  Plant response rating: Kochia: 90
kochia; 125 g ai/ha
  Plant response rating: Kochia: 90
crabgrass, large; 125 g ai/ha
  Plant response rating (scale of 0 to 100 where 0 is no effect and 100 is complete control): 100
crabgrass, large; 250 g ai/ha
  Plant response rating (scale of 0 to 100 where 0 is no effect and 100 is complete control): 100
crabgrass, large; 31 g ai/ha
  Crabgrass, Large plant response rating (0 to 100): 100
crabgrass, large; 62 g ai/ha
  Crabgrass, Large plant response rating (0 to 100): 100
wheat, spring; 16 g ai/ha
  Plant response rating: Wheat, Spring: 25
wheat, spring; 31 g ai/ha
  Plant response rating: Wheat, Spring: 40
wheat, spring; 62 g ai/ha
  Plant response rating: Wheat, Spring: 50
wheat, spring; 125 g ai/ha
  Plant response rating: Wheat, Spring: 50
wheat, winter; 16 g ai/ha
  Plant response rating: Wheat, Winter: 20
wheat, winter; 31 g ai/ha
  Plant response rating: Wheat, Winter: 35
wheat, winter; 62 g ai/ha
  Plant response rating: Wheat, Winter: 40
wheat, winter; 125 g ai/ha
  Plant response rating: Wheat, Winter: 45
buckwheat, wild
  Plant response rating (0 to 100), Buckwheat, Wild: 65
buckwheat, wild; 31 g ai/ha
  Plant response rating: Buckwheat, Wild: 70
buckwheat, wild; 62 g ai/ha
  Plant response rating: Buckwheat, Wild: 70
buckwheat, wild; 125 g ai/ha
  Plant response rating: Buckwheat, Wild: 95
